Target: T1, glutaminase (GAC) (Homo sapiens, UniProt O94925)
T1 sequence (O94925 55-598 isoform O94925-3 limits assumed): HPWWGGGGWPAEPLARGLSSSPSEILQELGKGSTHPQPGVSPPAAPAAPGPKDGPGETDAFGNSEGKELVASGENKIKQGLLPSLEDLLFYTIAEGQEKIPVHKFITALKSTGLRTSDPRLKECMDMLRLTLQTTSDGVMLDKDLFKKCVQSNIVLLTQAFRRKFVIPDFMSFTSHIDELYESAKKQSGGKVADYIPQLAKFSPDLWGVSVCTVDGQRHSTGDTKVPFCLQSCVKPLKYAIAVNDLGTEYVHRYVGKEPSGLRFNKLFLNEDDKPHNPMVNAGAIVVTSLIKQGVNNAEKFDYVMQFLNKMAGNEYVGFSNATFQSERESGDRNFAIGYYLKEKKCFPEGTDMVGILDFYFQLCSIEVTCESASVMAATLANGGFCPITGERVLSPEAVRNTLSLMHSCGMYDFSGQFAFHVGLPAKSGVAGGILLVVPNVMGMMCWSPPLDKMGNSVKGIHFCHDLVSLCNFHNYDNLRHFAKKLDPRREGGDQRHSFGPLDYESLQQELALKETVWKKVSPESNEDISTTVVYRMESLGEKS
Test: Glutaminase coupled endpoint enzymatic assay (Example A)
Type: biochemical
Conditions: inhibition of glutaminase; assay of Example A or Example B
Text: In certain embodiments, exemplary compounds of Formula I include the compounds described in Table 1 and in the Examples. A compound described herein may be tested for its ability to inhibit glutaminase, e.g., by an assay as described in the Examples. For simplicity, the inhibition activity of these compounds is represented as an IC50 tested in an assay of Example A or Example B in Table 1. […] “N/A” refers to compounds wherein the IC50 is unavailable.
In this example, the enzymatic activity of glutaminase is measured through a coupled endpoint assay. Glutamine and phosphate are supplied to GAC at a concentration equal to Km and AC50, respectively, and GAC concentration is adjusted to give a linear reaction for 60 minutes. The glutamate produced is converted to 2-OG by a kinetic excess of glutamate dehydrogenase. This second step is configured for 2×Km for NAD, since excess NAD is inhibitory. However, a kinetic excess of the third coupling enzyme, diaphorase, recycles NAD from NADH to keep the NAD concentration constant during the timecourse of the assay. Diaphorase, also supplied in kinetic excess, oxidizes NADH produced by GDH back to NAD with the concomitant reduction of rezasurin to the highly fluorescent resorufin. Resorufin in measured after the assay is stopped with SDS by Ex544/Em590. A reduction in the signal indicates inhibition of some component of the coupled enzyme system. Prospective hits are counterscreened against GDH/diaphorase alone to remove hits to the coupling enzyme system in a second assay.
2. Buffers • 2× Buffer (300 mM NaCl, 100 mM HEPES pH 8.5, 0.1% BSA, 0.5 mM EDTA, 100 mM sodium phosphate pH 8.5) • 5× Substrate Mix (1× Buffer final concentration, with 13 mM glutamine, 100 μM resazurin, 50 μg/ml diaphorase) • 1.2× Enzyme Mix (1× Buffer final concentration, with 0.875 μg/ml GAC, 1.56 mM NAD, 6.25 units/ml GDH) • Stop Mix (6% SDS in ddH2O) Reaction Procedure • 1. Add 1 μl compound in 100% DMSO • 2. Add 40 μl of Enzyme Mix and incubate for 60 minute at room temperature • 3. Add 10 μl of Substrate Mix to start reaction • 4. Stop reaction with 25 μl of 6% SDS and read Ex544 Em 590

IC50	Structure (SMILES)
< 100 nM	COc1ccc(CC(=O)Nc2nnc([C@H]3CCC[C@H](c4nnc(NC(=O)Cc5ccc(OC)nc5)s4)C3)s2)cn1 [Compound 221, N,N′-(5,5′-((1S,3S)-cyclohexane-1,3-diyl)bis(1,3,4-thiadiazole-5,2-diyl))bis(2-(6-methoxypyridin-3-yl)acetamide)]
< 100 nM	O=C(Cc1cscn1)Nc1nnc([C@H]2CCC[C@H](c3nnc(NC(=O)Cc4cscn4)s3)C2)s1 [Compound 222, N,N′-(5,5′-((1S,3S)-cyclohexane-1,3-diyl)bis(1,3,4-thiadiazole-5,2-diyl))bis(2-(thiazol-4-yl)acetamide)]
< 100 nM	COc1ccnc(CC(=O)Nc2nnc([C@H]3CCC[C@H](c4nnc(NC(=O)Cc5cc(OC)ccn5)s4)C3)s2)c1 [Compound 223, N,N′-(5,5′-((1S,3S)-cyclohexane-1,3-diyl)bis(1,3,4-thiadiazole-5,2-diyl))bis(2-(4-methoxypyridin-2-yl)acetamide)]
< 100 nM	COc1cc(CC(=O)Nc2nnc([C@H]3CCC[C@H](c4nnc(NC(=O)Cc5ccnc(OC)c5)s4)C3)s2)ccn1 [Compound 224, 2-(2-methoxypyridin-4-yl)-N-[5-[(1S,3S)-3-[5-[[2-(2-methoxypyridin-4-yl)acetyl]amino]-1,3,4-thiadiazol-2-yl]cyclohexyl]-1,3,4-thiadiazol-2-yl]acetamide]
< 100 nM	COc1ccc(CC(=O)Nc2nnc([C@H]3CCC[C@H](c4nnc(NC(=O)Cc5ccc(OC)cn5)s4)C3)s2)nc1 [Compound 225, N,N′-(5,5′-((1S,3S)-cyclohexane-1,3-diyl)bis(1,3,4-thiadiazole-5,2-diyl))bis(2-(5-methoxypyridin-2-yl)acetamide)]
< 100 nM	CCOc1ccc(CC(=O)Nc2nnc([C@H]3CCC[C@H](c4nnc(NC(=O)Cc5ccc(OCC)cn5)s4)C3)s2)nc1 [Compound 226, N,N′-(5,5′-((1S,3S)-cyclohexane-1,3-diyl)bis(1,3,4-thiadiazole-5,2-diyl))bis(2-(5-ethoxypyridin-2-yl)acetamide)]
< 100 nM	O=C(Cc1ccc(OC(F)F)cn1)Nc1nnc([C@H]2CCC[C@H](c3nnc(NC(=O)Cc4ccc(OC(F)F)cn4)s3)C2)s1 [Compound 228, N,N′-(5,5′-((1S,3S)-cyclohexane-1,3-diyl)bis(1,3,4-thiadiazole-5,2-diyl))bis(2-(5-(difluoromethoxy)pyridin-2-yl)acetamide)]
< 100 nM	N#Cc1cccc(CC(=O)Nc2nnc([C@H]3CCC[C@H](c4nnc(NC(=O)Cc5cccc(C#N)n5)s4)C3)s2)n1 [Compound 229, N,N′-(5,5′-((1S,3S)-cyclohexane-1,3-diyl)bis(1,3,4-thiadiazole-5,2-diyl))bis(2-(6-cyanopyridin-2-yl)acetamide)]
1000 to 2000 nM	O=C(Cc1ccncn1)Nc1nnc([C@H]2CCC[C@H](c3nnc(NC(=O)Cc4ccncn4)s3)C2)s1 [Compound 230, N,N′-(5,5′-((1S,3S)-cyclohexane-1,3-diyl)bis(1,3,4-thiadiazole-5,2-diyl))bis(2-(pyrimidin-4-yl)acetamide)]
100 to 500 nM	O=C(Cc1cccnn1)Nc1nnc([C@H]2CCC[C@H](c3nnc(NC(=O)Cc4cccnn4)s3)C2)s1 [Compound 231, N,N′-(5,5′-((1S,3S)-cyclohexane-1,3-diyl)bis(1,3,4-thiadiazole-5,2-diyl))bis(2-(pyridazin-3-yl)acetamide)]
< 100 nM	Nc1cccc(CC(=O)Nc2nnc([C@H]3CCC[C@H](c4nnc(NC(=O)Cc5cccc(N)n5)s4)C3)s2)n1 [Compound 232, N,N′-(5,5′-((1S,3S)-cyclohexane-1,3-diyl)bis(1,3,4-thiadiazole-5,2-diyl))bis(2-(6-aminopyridin-2-yl)acetamide)]
< 100 nM	Nc1ccc(CC(=O)Nc2nnc([C@H]3CCC[C@H](c4nnc(NC(=O)Cc5ccc(N)cn5)s4)C3)s2)nc1 [Compound 233, N,N′-(5,5′-((1S,3S)-cyclohexane-1,3-diyl)bis(1,3,4-thiadiazole-5,2-diyl))bis(2-(5-aminopyridin-2-yl)acetamide)]
100 to 500 nM	CN(C)C(=O)c1ccc(CC(=O)Nc2nnc([C@H]3CCC[C@H](c4nnc(NC(=O)Cc5ccc(C(=O)N(C)C)cn5)s4)C3)s2)nc1 [Compound 234, 6-[[5-[3-[5-[[2-[5-(dimethylcarbamoyl)pyridin-2-yl]acetyl]amino]-1,3,4-thiadiazol-2-yl]cyclohexyl]-1,3,4-thiadiazol-2-yl]carbamoylmethyl]-N,N-dimethyl-pyridine-3-carboxamide]
500 to 1000 nM	CCN(CC)c1cccc(CC(=O)Nc2nnc([C@H]3CCC[C@H](c4nnc(NC(=O)Cc5cccc(N(CC)CC)c5)s4)C3)s2)c1 [Compound 235, N,N′-(5,5′-((1S,3S)-cyclohexane-1,3-diyl)bis(1,3,4-thiadiazole-5,2-diyl))bis(2-(3-(diethylamino)phenyl)acetamide)]
< 100 nM	CCNc1cccc(CC(=O)Nc2nnc([C@H]3CCC[C@H](c4nnc(NC(=O)Cc5cccc(NCC)c5)s4)C3)s2)c1 [Compound 236, N,N′-(5,5′-((1S,3S)-cyclohexane-1,3-diyl)bis(1,3,4-thiadiazole-5,2-diyl))bis(2-(3-(ethylamino)phenyl)acetamide)]
500 to 1000 nM	CCN(CC)c1ccc(CC(=O)Nc2nnc([C@H]3CCC[C@H](c4nnc(NC(=O)Cc5ccc(N(CC)CC)cc5)s4)C3)s2)cc1 [Compound 237, N,N′-(5,5′-((1S,3S)-cyclohexane-1,3-diyl)bis(1,3,4-thiadiazole-5,2-diyl))bis(2-(4-(diethylamino)phenyl)acetamide)]
< 100 nM	CS(=O)(=O)Nc1ccc(CC(=O)Nc2nnc([C@H]3CCC[C@H](c4nnc(NC(=O)Cc5ccc(NS(C)(=O)=O)cc5)s4)C3)s2)cc1 [Compound 238, N,N′-(5,5′-((1S,3S)-cyclohexane-1,3-diyl)bis(1,3,4-thiadiazole-5,2-diyl))bis(2-(4-(methylsulfonamido)phenyl)acetamide)]
< 100 nM	Nc1ccc(CC(=O)Nc2nnc([C@H]3CCC[C@H](c4nnc(NC(=O)Cc5ccc(N)cc5)s4)C3)s2)cc1 [Compound 239, N,N′-(5,5′-((1S,3S)-cyclohexane-1,3-diyl)bis(1,3,4-thiadiazole-5,2-diyl))bis(2-(4-aminophenyl)acetamide)]
< 100 nM	O=C(Cc1ccc(F)cn1)Nc1nnc([C@H]2CCC[C@H](c3nnc(NC(=O)Cc4ccc(F)cn4)s3)C2)s1 [Compound 240, N,N′-(5,5′-((1S,3S)-cyclohexane-1,3-diyl)bis(1,3,4-thiadiazole-5,2-diyl))bis(2-(5-fluoropyridin-2-yl)acetamide)]
< 100 nM	CN(C)c1ccc(CC(=O)Nc2nnc([C@H]3CCC[C@H](c4nnc(NC(=O)Cc5ccc(N(C)C)cn5)s4)C3)s2)nc1 [Compound 241, N,N′-(5,5′-((1S,3S)-cyclohexane-1,3-diyl)bis(1,3,4-thiadiazole-5,2-diyl))bis(2-(5-(dimethylamino)pyridin-2-yl)acetamide)]
< 100 nM	NC(=O)c1ccc(CC(=O)Nc2nnc([C@H]3CCC[C@H](c4nnc(NC(=O)Cc5ccc(C(N)=O)cn5)s4)C3)s2)nc1 [Compound 242]
100 to 500 nM	NCc1ccc(CC(=O)Nc2nnc([C@H]3CCC[C@H](c4nnc(NC(=O)Cc5ccc(CN)cn5)s4)C3)s2)nc1 [Compound 243, N,N′-(5,5′-((1S,3S)-cyclohexane-1,3-diyl)bis(1,3,4-thiadiazole-5,2-diyl))bis(2-(5-(aminomethyl)pyridin-2-yl)acetamide)]
100 to 500 nM	NCc1cccc(CC(=O)Nc2nnc([C@H]3CCC[C@H](c4nnc(NC(=O)Cc5cccc(CN)n5)s4)C3)s2)n1 [Compound 244, N,N′-(5,5′-((1S,3S)-cyclohexane-1,3-diyl)bis(1,3,4-thiadiazole-5,2-diyl))bis(2-(6-(aminomethyl)pyridin-2-yl)acetamide)]

From US9029531B2 (Agios Pharmaceuticals, Inc., priority 2012, dated 2015)
